Converted amounts (≈) assume the structure as drawn. The source made the active and inactive calls. The calls are words filed in the database; no cut-off is given here.
Tests used:
Staphylococcus aureus [1] = assay: Antibacterial activity against methicillin resistant Staphylococcus aureus assessed as inhibition of bacterial growth by micro-broth dilution assay; assay type: functional
Staphylococcus aureus [2] = assay: Antibacterial activity against Staphylococcus aureus assessed as inhibition of bacterial growth by micro-broth dilution assay; assay type: functional
Staphylococcus aureus [3] = assay: Antibacterial activity against Staphylococcus aureus ATCC 25923 assessed as inhibition of bacterial growth by micro-broth dilution assay; assay type: functional
Staphylococcus aureus [4] = assay: Antibacterial activity against Staphylococcus aureus ATCC 29213 assessed as inhibition of bacterial growth by micro-broth dilution assay; assay type: functional
Enterococcus faecalis = assay: Antibacterial activity against Enterococcus faecalis assessed as inhibition of bacterial growth by micro-broth dilution assay; assay type: functional
Klebsiella pneumoniae = assay: Antibacterial activity against Klebsiella pneumoniae assessed as inhibition of bacterial growth by micro-broth dilution assay; assay type: functional
Escherichia coli [5] = assay: Antibacterial activity against Escherichia coli assessed as inhibition of bacterial growth by micro-broth dilution assay; assay type: functional
Escherichia coli [6] = assay: Antibacterial activity against Escherichia coli ATCC 25922 assessed as inhibition of bacterial growth by micro-broth dilution assay; assay type: functional
Pseudomonas aeruginosa [7] = assay: Antibacterial activity against Pseudomonas aeruginosa assessed as inhibition of bacterial growth by micro-broth dilution assay; assay type: functional
Pseudomonas aeruginosa [8] = assay: Antibacterial activity against Pseudomonas aeruginosa ATCC 27853 assessed as inhibition of bacterial growth by micro-broth dilution assay; assay type: functional
Acinetobacter baumannii [9] = assay: Antibacterial activity against Acinetobacter baumannii assessed as inhibition of bacterial growth by micro-broth dilution assay; assay type: functional
Pseudomonas aeruginosa [10] = assay: Antibacterial activity against Pseudomonas aeruginosa ATCC 27853 assessed as inhibition of bacterial growth measured after 6 hrs; assay type: functional, organism-based
Pseudomonas aeruginosa [11] = assay: Antibacterial activity against Pseudomonas aeruginosa ATCC 27853 assessed as inhibition of bacterial growth at 4 times MIC measured upto 14 hrs; assay type: functional, organism-based
[12] = Hemolytic activity in RBC (unknown origin) assessed as hemolysis; assay type: toxicity, cell-based, Erythrocyte; conditions: red blood cells (erythrocytes)
Acinetobacter baumannii [13] = assay: Potency index, ratio of norfloxacin MIC to test compound MIC for antibacterial activity against Acinetobacter baumannii assessed as inhibition of bacterial growth by micro-broth dilution assay; assay type: functional

Compound	MIC (Staphylococcus aureus [1]) [µg/mL]	MIC (Staphylococcus aureus [2]) [µg/mL]	MIC (Staphylococcus aureus [3]) [µg/mL]	MIC (Staphylococcus aureus [4]) [µg/mL]	MIC (Enterococcus faecalis) [µg/mL]	MIC (Klebsiella pneumoniae) [µg/mL]	MIC (Escherichia coli [5]) [µg/mL]	MIC (Escherichia coli [6]) [µg/mL]	MIC (Pseudomonas aeruginosa [7]) [µg/mL]	MIC (Pseudomonas aeruginosa [8]) [µg/mL]	MIC (Acinetobacter baumannii [9]) [µg/mL]	Activity (Pseudomonas aeruginosa [10])	Activity (Pseudomonas aeruginosa [11])	HC50 [12] [µg/mL]	Ratio (Acinetobacter baumannii [13])
CCn1cc(C(=O)O)c(=O)c2cc(F)c(N3CCNCC3)cc21 [NORFLOXACIN]	8 (≈ 25.1 µM)	2 (≈ 6.26 µM)	4 (≈ 12.5 µM)	2 (≈ 6.26 µM)	4 (≈ 12.5 µM)	2 (≈ 6.26 µM)	8 (≈ 25.1 µM)	2 (≈ 6.26 µM)	8 (≈ 25.1 µM)	4 (≈ 12.5 µM)	4 (≈ 12.5 µM)	Active	Active		
Cn1nnnc1SCC(O)CN1C(=O)C(=O)c2ccccc21 (stereo not given)	64 (≈ 200 µM)	32 (≈ 100 µM)	128 (≈ 401 µM)	64 (≈ 200 µM)	64 (≈ 200 µM)	16 (≈ 50.1 µM)	64 (≈ 200 µM)	16 (≈ 50.1 µM)	64 (≈ 200 µM)	32 (≈ 100 µM)	64 (≈ 200 µM)			335	
Cn1nnnc1SCC(O)CN1C(=O)/C(=N\Nc2ccc(C(=O)O)cc2)c2ccccc21 (stereo not given)	4 (≈ 8.82 µM)	16 (≈ 35.3 µM)	16 (≈ 35.3 µM)	16 (≈ 35.3 µM)	8 (≈ 17.6 µM)	32 (≈ 70.6 µM)	32 (≈ 70.6 µM)	16 (≈ 35.3 µM)	128 (≈ 282 µM)	32 (≈ 70.6 µM)	32 (≈ 70.6 µM)			292	
O=C1C(=O)N(CC(O)CSc2nc[nH]n2)c2ccccc21 (stereo not given)	64 (≈ 210 µM)	128 (≈ 421 µM)	32 (≈ 105 µM)	64 (≈ 210 µM)	64 (≈ 210 µM)	32 (≈ 105 µM)	64 (≈ 210 µM)	128 (≈ 421 µM)	16 (≈ 52.6 µM)	128 (≈ 421 µM)	64 (≈ 210 µM)			285	
O=C1/C(=N\Nc2ccccc2)c2ccccc2N1CC(O)CSc1nc[nH]n1 (stereo not given)	128 (≈ 324 µM)	32 (≈ 81.1 µM)	16 (≈ 40.6 µM)	128 (≈ 324 µM)	32 (≈ 81.1 µM)	128 (≈ 324 µM)	128 (≈ 324 µM)	64 (≈ 162 µM)	16 (≈ 40.6 µM)	128 (≈ 324 µM)	128 (≈ 324 µM)			375	
Cn1ccnc1SCC(O)CN1C(=O)/C(=N\Nc2ccc(Cl)cc2)c2ccccc21 (stereo not given)	128 (≈ 290 µM)	16 (≈ 36.2 µM)	256 (≈ 579 µM)	64 (≈ 145 µM)	4 (≈ 9.05 µM)	2 (≈ 4.53 µM)	32 (≈ 72.4 µM)	128 (≈ 290 µM)	64 (≈ 145 µM)	32 (≈ 72.4 µM)	16 (≈ 36.2 µM)			151	
Cc1ccc(N/N=C2\C(=O)N(CC(O)CSc3nnnn3C)c3ccccc32)cc1 (stereo not given)	8 (≈ 18.9 µM)	2 (≈ 4.72 µM)	4 (≈ 9.45 µM)	16 (≈ 37.8 µM)	8 (≈ 18.9 µM)	16 (≈ 37.8 µM)	32 (≈ 75.6 µM)	64 (≈ 151 µM)	2 (≈ 4.72 µM)	4 (≈ 9.45 µM)	2 (≈ 4.72 µM)			383	2
O=C(O)c1ccc(N/N=C2\C(=O)N(CC(O)CSc3nc[nH]n3)c3ccccc32)cc1 (stereo not given)	4 (≈ 9.12 µM)	64 (≈ 146 µM)	8 (≈ 18.2 µM)	4 (≈ 9.12 µM)	2 (≈ 4.56 µM)	2 (≈ 4.56 µM)	8 (≈ 18.2 µM)	32 (≈ 73 µM)	64 (≈ 146 µM)	16 (≈ 36.5 µM)	16 (≈ 36.5 µM)			282	
Cn1ccnc1SCC(O)CN1C(=O)/C(=N\Nc2ccccc2)c2ccccc21 (stereo not given)	128 (≈ 314 µM)	128 (≈ 314 µM)	256 (≈ 628 µM)	128 (≈ 314 µM)	128 (≈ 314 µM)	128 (≈ 314 µM)	128 (≈ 314 µM)	128 (≈ 314 µM)	256 (≈ 628 µM)	128 (≈ 314 µM)	128 (≈ 314 µM)			441	

Reference: ChEMBL document CHEMBL5338704, “Discovery of novel phenylhydrazone-based oxindole-thiolazoles as potent antibacterial agents toward Pseudomonas aeruginosa” (Eur J Med Chem, 2022)
